According to patent US20250230193A1, “CYCLIC COMPOUND HAVING SELECTIVE KRAS INHIBITORY EFFECT ON HRAS AND NRAS” (CHUGAI SEIYAKU KABUSHIKI KAISHA, priority 2022, published 2025):

What was measured:
[1] = target: GDP-bound HRAS wild-type protein (Homo sapiens, UniProt P01112); experiment: Binding to HRAS by surface plasmon resonance (SPR), Single Cycle Kinetics; conditions: SPR, GDP-bound HRAS wild-type vs GDP-bound KRAS wild-type
[2] = target: GDP-bound NRAS wild-type protein (Homo sapiens, UniProt P01111); experiment: Binding to NRAS by surface plasmon resonance (SPR), Single Cycle Kinetics; conditions: SPR, GDP-bound NRAS wild-type vs GDP-bound KRAS wild-type
Sequence of GDP-bound NRAS wild-type protein (P01111 whole entry): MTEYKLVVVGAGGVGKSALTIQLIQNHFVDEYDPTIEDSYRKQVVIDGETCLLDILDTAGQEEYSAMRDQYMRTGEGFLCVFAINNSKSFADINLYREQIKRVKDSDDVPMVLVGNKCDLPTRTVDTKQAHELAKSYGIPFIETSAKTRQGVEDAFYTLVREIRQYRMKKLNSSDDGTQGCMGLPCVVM

Sequence of GDP-bound HRAS wild-type protein (P01112 whole entry): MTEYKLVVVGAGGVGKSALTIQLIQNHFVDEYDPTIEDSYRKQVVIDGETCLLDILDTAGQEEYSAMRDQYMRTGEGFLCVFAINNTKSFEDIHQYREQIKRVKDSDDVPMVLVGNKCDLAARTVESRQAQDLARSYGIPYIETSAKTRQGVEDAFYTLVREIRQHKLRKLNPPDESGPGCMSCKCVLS

| SMILES | HRAS/KRAS (ratio of KD value with respect to HRAS to KD value with respect to KRAS) [1] | NRAS/KRAS (ratio of KD value with respect to NRAS to KD value with respect to KRAS) [2] |
| --- | --- | --- |
| CCOC[C@H]1C(=O)N[C@@H]([C@@H](C)CC)C(=O)N(C)CC(=O)N(C)[C@H]2C/C=C\CCN(C2=O)[C@@H](Cc2ccc(C)cc2)C(=O)N(C)CC(=O)N[C@@H](CCc2ccc(C(F)(F)F)c(Cl)c2)C(=O)N2C[C@H](OCC)C[C@H]2C(=O)NC2(CC(C)(C)C2)C(=O)N(C)[C@@H](C2CCCC2)C(=O)N(C)[C@H](C(=O)N(C)C)CC(=O)N1C [PP2395] | B (a compound having 3 or more and less than 10 is denoted as B) | A (a compound having 10 or more and less than 20 is denoted as A) |
| CCO[C@@H]1C[C@H]2C(=O)NC3(CC(C)(C)C3)C(=O)N(C)[C@@H](C3CCCC3)C(=O)N(C)[C@H](C(=O)N(C)CC)CC(=O)N(C)[C@@H](COC)C(=O)N[C@@H]([C@@H](C)CC)C(=O)N(C)CC(=O)N(C)[C@H]3C/C=C\CCN(C3=O)[C@@H](Cc3ccc(C)cc3)C(=O)N(C)CC(=O)N[C@@H](CCc3cc(F)c(C(F)(F)F)c(F)c3)C(=O)N2C1 [PP2396] | A (a compound having 10 or more and less than 20 is denoted as A) | A (a compound having 10 or more and less than 20 is denoted as A) |
| CCOC[C@H]1C(=O)N[C@@H]([C@@H](C)CC)C(=O)N(C)CC(=O)N(C)[C@H]2C/C=C\CCN(C2=O)[C@@H](Cc2ccc(C)cc2)C(=O)N(C)CC(=O)N[C@@H](CCc2cc(F)c(C(F)(F)F)c(F)c2)C(=O)N2C[C@H](OCC)C[C@H]2C(=O)NC2(CC(C)(C)C2)C(=O)N(C)[C@@H](C2CCCC2)C(=O)N(C)[C@H](C(=O)N(C)C)CC(=O)N1C [PP2397] | A (a compound having 10 or more and less than 20 is denoted as A) | A (a compound having 10 or more and less than 20 is denoted as A) |
| CCO[C@@H]1C[C@H]2C(=O)NC3(CC(C)(C)C3)C(=O)N(C)[C@@H](C3CCCC3)C(=O)N(C)[C@H](C(=O)N(CC)CC)CC(=O)N(C)[C@@H](COC)C(=O)N[C@@H]([C@@H](C)CC)C(=O)N(C)CC(=O)N(C)[C@H]3C/C=C\CCN(C3=O)[C@@H](Cc3ccc(C)cc3)C(=O)N(C)CC(=O)N[C@@H](CCc3ccc(C(F)(F)F)c(OC)c3)C(=O)N2C1 [PP2398] | A (a compound having 10 or more and less than 20 is denoted as A) | A (a compound having 10 or more and less than 20 is denoted as A) |
| CC[C@H](C)[C@@H]1NC(=O)[C@H](COC)N(C)C(=O)C[C@@H](C(=O)N(CC)CC)N(C)C(=O)[C@H](C2CCCC2)N(C)C(=O)C2(CC(C)(C)C2)NC(=O)[C@@H]2C[C@H](C)CN2C(=O)[C@H](CCc2ccc(C(F)(F)F)c(Cl)c2)NC(=O)CN(C)C(=O)[C@H](Cc2ccc(C)cc2)N2CC/C=C\C[C@@H](C2=O)N(C)C(=O)CN(C)C1=O [PP2399] | A (a compound having 10 or more and less than 20 is denoted as A) | AA (a compound having 20 or more is denoted as AA) |
| CCO[C@@H]1C[C@H]2C(=O)NC3(CC(C)(C)C3)C(=O)N(C)[C@@H](C3CCCC3)C(=O)N(C)[C@H](C(=O)N(CC)CC)CC(=O)N(C)[C@@H](COC)C(=O)N[C@@H]([C@@H](C)CC)C(=O)N(C)CC(=O)N(C)[C@H]3C/C=C\CCN(C3=O)[C@@H](Cc3ccc(C)cc3)C(=O)N(C)CC(=O)N[C@@H](CCc3ccc(C(F)(F)F)c(Cl)c3)C(=O)N2C1 [PP2400] | A (a compound having 10 or more and less than 20 is denoted as A) | A (a compound having 10 or more and less than 20 is denoted as A) |
| CCOC[C@H]1C(=O)N[C@@H]([C@@H](C)CC)C(=O)N(C)CC(=O)N(C)[C@H]2C/C=C\CCN(C2=O)[C@@H](Cc2ccc(C)cc2)C(=O)N(C)CC(=O)N[C@@H](CCc2ccc(C(F)(F)F)c(Cl)c2)C(=O)N2C[C@H](OCC)C[C@H]2C(=O)NC2(CC(C)(C)C2)C(=O)N(C)[C@@H](C2CCCC2)C(=O)N(C)[C@H](C(=O)N(C)CC)CC(=O)N1C [PP2401] | A (a compound having 10 or more and less than 20 is denoted as A) | A (a compound having 10 or more and less than 20 is denoted as A) |
| CCCOC[C@H]1C(=O)N[C@@H]([C@@H](C)CC)C(=O)N(C)CC(=O)N(C)[C@H]2C/C=C\CCN(C2=O)[C@@H](Cc2ccc(C)cc2)C(=O)N(C)CC(=O)N[C@@H](CCc2ccc(C(F)(F)F)c(Cl)c2)C(=O)N2C[C@H](OCC)C[C@H]2C(=O)NC2(CC(C)(C)C2)C(=O)N(C)[C@@H](C2CCCC2)C(=O)N(C)[C@H](C(=O)N(C)C)CC(=O)N1C [PP2402] | A (a compound having 10 or more and less than 20 is denoted as A) | A (a compound having 10 or more and less than 20 is denoted as A) |
| CCO[C@@H]1C[C@H]2C(=O)NC3(CC(C)(C)C3)C(=O)N(C)[C@@H](C3CCCC3)C(=O)N(C)[C@H](C(=O)N(CC)CC)CC(=O)N(C)[C@@H](COC)C(=O)N[C@@H]([C@@H](C)CC)C(=O)N(C)CC(=O)N(C)[C@H]3C/C=C\CCN(C3=O)[C@@H](Cc3ccc(C)cc3)C(=O)N(C)CC(=O)N[C@@H](CCc3cc(F)c(C(F)(F)F)c(F)c3)C(=O)N2C1 [PP2403] | A (a compound having 10 or more and less than 20 is denoted as A) | A (a compound having 10 or more and less than 20 is denoted as A) |
| CCOC[C@H]1C(=O)N[C@@H]([C@@H](C)CC)C(=O)N(C)CC(=O)N(C)[C@H]2C/C=C\CCN(C2=O)[C@@H](Cc2ccc(C)cc2)C(=O)N(C)CC(=O)N[C@@H](CCc2cc(F)c(C(F)(F)F)c(F)c2)C(=O)N2C[C@H](OCC)C[C@H]2C(=O)NC2(CC(C)(C)C2)C(=O)N(C)[C@@H](C2CCCC2)C(=O)N(C)[C@H](C(=O)N(C)CC)CC(=O)N1C [PP2404] | A (a compound having 10 or more and less than 20 is denoted as A) | A (a compound having 10 or more and less than 20 is denoted as A) |
| CCOC[C@H]1C(=O)N[C@@H]([C@@H](C)CC)C(=O)N(C)CC(=O)N(C)[C@H]2C/C=C\CCN(C2=O)[C@@H](Cc2ccc(C)cc2)C(=O)N(C)CC(=O)N[C@@H](CCc2ccc(C(F)(F)F)c(OC)c2)C(=O)N2C[C@@H](C)C[C@H]2C(=O)NC2(CC(C)(C)C2)C(=O)N(C)[C@@H](C2CCCC2)C(=O)N(C)[C@H](C(=O)N(CC)CC)CC(=O)N1C [PP2405] | A (a compound having 10 or more and less than 20 is denoted as A) | A (a compound having 10 or more and less than 20 is denoted as A) |
| CCOC[C@H]1C(=O)N[C@@H]([C@@H](C)CC)C(=O)N(C)CC(=O)N(C)[C@H]2C/C=C\CCN(C2=O)[C@@H](Cc2ccc(C)cc2)C(=O)N(C)CC(=O)N[C@@H](CCc2ccc(C(F)(F)F)c(OC)c2)C(=O)N2C[C@H](OCC)C[C@H]2C(=O)NC2(CC(C)(C)C2)C(=O)N(C)[C@@H](C2CCCC2)C(=O)N(C)[C@H](C(=O)N(CC)CC)CC(=O)N1C [PP2406] | A (a compound having 10 or more and less than 20 is denoted as A) | A (a compound having 10 or more and less than 20 is denoted as A) |
| CCOC[C@H]1C(=O)N[C@@H]([C@@H](C)CC)C(=O)N(C)CC(=O)N(C)[C@H]2C/C=C\CCN(C2=O)[C@@H](Cc2ccc(C)cc2)C(=O)N(C)CC(=O)N[C@@H](CCc2cc(F)c(C(F)(F)F)c(F)c2)C(=O)N2C[C@@H](C)C[C@H]2C(=O)NC2(CC(C)(C)C2)C(=O)N(C)[C@@H](C2CCCC2)C(=O)N(C)[C@H](C(=O)N(CC)CC)CC(=O)N1C [PP2407] | A (a compound having 10 or more and less than 20 is denoted as A) | A (a compound having 10 or more and less than 20 is denoted as A) |
| CCOC[C@H]1C(=O)N[C@@H]([C@@H](C)CC)C(=O)N(C)CC(=O)N(C)[C@H]2C/C=C\CCN(C2=O)[C@@H](Cc2ccc(C)cc2)C(=O)N(C)CC(=O)N[C@@H](CCc2cc(F)c(C(F)(F)F)c(F)c2)C(=O)N2C[C@H](OCC)C[C@H]2C(=O)NC2(CC(C)(C)C2)C(=O)N(C)[C@@H](C2CCCC2)C(=O)N(C)[C@H](C(=O)N(CC)CC)CC(=O)N1C [PP2408] | A (a compound having 10 or more and less than 20 is denoted as A) | A (a compound having 10 or more and less than 20 is denoted as A) |
| CC[C@H](C)[C@@H]1NC(=O)[C@H](CC(C)C)N(C)C(=O)C[C@@H](C(=O)N(C)C)N(C)C(=O)[C@H](C2CCCC2)N(C)C(=O)C2(CC(C)(C)C2)NC(=O)[C@@H]2C[C@H](C)CN2C(=O)[C@H](CCc2ccc(C(F)(F)F)c(OC)c2)NC(=O)CN(C)C(=O)[C@H](Cc2ccc(C)cc2)N2CC/C=C\C[C@@H](C2=O)N(C)C(=O)[C@@H]2CCCN2C1=O [PP2409] | B (a compound having 3 or more and less than 10 is denoted as B) | A (a compound having 10 or more and less than 20 is denoted as A) |
| CC[C@H](C)[C@@H]1NC(=O)[C@H](CC(C)C)N(C)C(=O)C[C@@H](C(=O)N(C)CC)N(C)C(=O)[C@H](C2CCCC2)N(C)C(=O)C2(CC(C)(C)C2)NC(=O)[C@@H]2C[C@H](C)CN2C(=O)[C@H](CCc2ccc(C(F)(F)F)c(OC)c2)NC(=O)CN(C)C(=O)[C@H](Cc2ccc(C)cc2)N2CC/C=C\C[C@@H](C2=O)N(C)C(=O)[C@@H]2CCCN2C1=O [PP2410] | A (a compound having 10 or more and less than 20 is denoted as A) | A (a compound having 10 or more and less than 20 is denoted as A) |
